Laboratory results from patent US10428101B2, “Preparation of glycosphingosines” (The Regents of the University of California, priority 2013, dated 2019).
Marks after values point to notes of the source that are not given here.

How the values were obtained:
[1] = Water solubility of fluorous-tagged lactoside; type: physicochemical; conditions: qualitative statement
[2] = molecular target: Pasteurella multocida α2-3-sialyltransferase 1 E271F/R313Y mutant (PmST1 E271F/R313Y) (Pasteurella multocida, UniProt Q15KI8, E271F/R313Y); conditions: for Conversion (%): acceptor lactoside to Neu5Acα2-3 product, OPME sialylation pH 8.5, assayed at 4 h, TLC and ImageQuant 5.2
Chain of Pasteurella multocida α2-3-sialyltransferase 1 E271F/R313Y mutant (PmST1 E271F/R313Y) (Q15KI8 26-412 E271F/R313Y): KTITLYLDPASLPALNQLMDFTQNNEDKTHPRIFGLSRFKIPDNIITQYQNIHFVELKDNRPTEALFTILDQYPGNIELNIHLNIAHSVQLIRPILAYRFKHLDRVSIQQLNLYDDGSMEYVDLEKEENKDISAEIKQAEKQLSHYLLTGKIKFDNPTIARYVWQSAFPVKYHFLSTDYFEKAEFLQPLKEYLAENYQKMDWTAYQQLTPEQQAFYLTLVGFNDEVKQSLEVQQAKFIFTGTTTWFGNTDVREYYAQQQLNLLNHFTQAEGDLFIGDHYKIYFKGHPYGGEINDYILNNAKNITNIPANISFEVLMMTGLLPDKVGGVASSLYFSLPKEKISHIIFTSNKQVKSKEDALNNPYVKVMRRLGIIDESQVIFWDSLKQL
From the text: To test the suitability of lactoside 1 as an acceptor sugar, a one-pot two-enzyme system containing PmST1 E271F/R313Y and Neisseria meningitidis CMP-sialic acid synthetase (NmCSS) (Scheme 2) was used.
To increase the solubility of the fluorous-tagged lactosides and to examine how the length of the fluorous tags affects the efficiency of the enzymatic reactions, fluorous-tagged lactosides (2-4) (Scheme 1) containing a propylamide linker and different lengths of fluoroalkyl chains were synthesized and used as the acceptor sugars in a one-pot two-enzyme system containing NmCSS and PmST1 E271F/R313Y (Scheme 3).
The reactions were monitored by TLC (EtOAc:MeOH:H2O:AcOH=5:2:1:0.1).

[3] = molecular target: Photobacterium damselae α2-6-sialyltransferse (Pd2,6ST) (Photobacterium damselae, UniProt O66375); test: One-pot two-enzyme α2-6-sialylation of fluorous-tagged lactoside acceptors (NmCSS + Pd2,6ST), conversion by TLC/ImageQuant; type: biochemical; conditions: acceptor lactoside to Neu5Acα2-6 product; OPME sialylation pH 8.5; assayed at 4 h; TLC and ImageQuant 5.2
Chain of Photobacterium damselae α2-6-sialyltransferse (Pd2,6ST) (O66375 entry or part of it): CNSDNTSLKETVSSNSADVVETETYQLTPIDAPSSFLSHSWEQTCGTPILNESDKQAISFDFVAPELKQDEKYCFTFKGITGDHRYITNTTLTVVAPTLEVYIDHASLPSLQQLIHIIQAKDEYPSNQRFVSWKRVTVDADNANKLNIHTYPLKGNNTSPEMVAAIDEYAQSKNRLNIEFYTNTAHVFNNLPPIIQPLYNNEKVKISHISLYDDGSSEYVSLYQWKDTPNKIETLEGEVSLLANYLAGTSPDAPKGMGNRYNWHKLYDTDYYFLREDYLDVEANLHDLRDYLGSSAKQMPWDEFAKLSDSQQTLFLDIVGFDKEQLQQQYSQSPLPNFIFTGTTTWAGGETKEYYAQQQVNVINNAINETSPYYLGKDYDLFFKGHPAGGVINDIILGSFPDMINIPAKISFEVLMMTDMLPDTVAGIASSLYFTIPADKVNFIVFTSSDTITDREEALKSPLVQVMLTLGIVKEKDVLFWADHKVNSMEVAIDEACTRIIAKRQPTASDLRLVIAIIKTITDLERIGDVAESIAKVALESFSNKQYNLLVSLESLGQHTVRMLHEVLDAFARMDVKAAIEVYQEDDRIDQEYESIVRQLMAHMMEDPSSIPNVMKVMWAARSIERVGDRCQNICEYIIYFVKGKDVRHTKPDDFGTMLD
Experimental: B: One-pot two-enzyme sialylation reaction with Pd2,6ST.
Reaction conversion rates were determined by staining the TLC plates with p-anisaldehyde sugar stain and then using ImageQuant 5.2 software to compare the relative intensities between the glycosylation product spot and the lactoside acceptor spot of each reaction (FIG. 1). For external standard comparison, each lactoside acceptor spot was also compared with its corresponding standard 10 mM stock solution spot to verify the conversion rates of each reaction.
Pd2,6ST (0.72 μg) was added to a 0.5 mL centrifuge tube containing 0.01μmol (1 eq.) of a lactoside acceptor (chosen from 1-8), Neu5Ac (1.2 eq.), CTP (2 eq.), Tris-HCl buffer (100 mM, pH 8.5), MgCl2 (20 mM), NmCSS (0.08 μg), and water (total volume=10 μL). The reactions were monitored by TLC (EtOAc:MeOH:H2O:AcOH=5:2:1:0.1).

Substance	water solubility [1]	sialylated product detected (trace amount) ([2]; one-pot two-enzyme system PmST1 E271F/R313Y and NmCSS, by TLC and MALDI-TOF)	Conversion (%) [3]	Conversion (%) [2]
LacβC8F17 [Compound 1]	low	< 10%		
LacβProNH-C8F17 [Compound 2]			31 ± 18^[b] %	22 ± 12^[b] %
LacβProNH-HEG-C6F13 [Compound 8]			66 ± 25^[b] %	80 ± 15^[b] %
LacβProNH-HEG-C8F17 [Compound 6]			52 ± 5.6^[b] %	55 ± 7.8^[b] %
LacβProNH-TEG-C6F13 [Compound 7]			65 ± 7.9^[b] %	70 ± 4.8^[b] %
LacβProNH-TEG-C8F17 [Compound 5]			47 ± 10^[b] %	65 ± 11^[b] %
LacβProNH—C3F7 [Compound 4]			qt.^[b]	89 ± 9.8^[b] %
LacβProNH—C6F13 [Compound 3]			94 ± 6.0^[b] %	92 ± 5.5^[b] %
